Results reported in patent US10646489B2, “Compositions and methods for increasing energy metabolism” (NuSirt Sciences, Inc., priority 2012, dated 2020).

How the values were obtained:
diet-induced obese mouse [1] = assay: Liver mass in the diet-induced obese mouse; assay type: in vivo; conditions: 6 week treatment
Procedure: The interactive effects of icariin, a flavanol with specific PDE5 inhibitory properties, on glycemia and insulin sensitivity were assessed in the diet-induced obese mouse, which can be used as a murine model of type 2 diabetes. Male C57/BL6 mice were placed on standard low-fat chow (control; 10% energy from fat) or high fat (60% energy from fat, Research Diets # D12492, Research Diets, Inc, New Brunswick, N.J.) at six weeks of age to induce insulin resistance. […] The animals were then randomized to the following diets for an additional six weeks, with 10 animals per group: Low fat diet (LFD) control; High fat diet (HFD) control; HFD+leucine (24 g/kg diet, a two-fold increase over control levels)1 HFD+leucine (24 g/kg diet)+icariin (25 mg/kg diet). […] A chronic high fat diet is associated with other deleterious consequences. For example, a chronic high fat diet can increase liver mass, likely resulting from fatty accumulation in the liver. Chronic high fat feeding is also associated with chronic inflammation, which can contribute to a number of diseases. To determine the effects of leucine or leucine+icariin administration on additional consequences of high fat feeding, liver mass and C-reactive protein (a biomarker of inflammation) were assessed in all experimental groups at the end of the 6 week study. […] HFD, FIG. 26). […]

3T3-L1 adipocytes = assay: Fatty acid oxidation in 3T3-L1 adipocytes / adipocytes; assay type: cell-based; conditions: 3T3-L1 adipocytes; leucine 0.5 mM or HMB 5 μM alone; p<0.05
Excerpt: (§1) Data expressed as % change from control value.*p<0.05. The output of the pathways can be measured using one or more methods, disclosed herein and/or known in the art. […] Mitochondrial biogenesis can be measured using a mitochondrial probe by using fluorescence. AMPK activity can be determined by measuring AMPK phosphorylation via an ELISA assay or by Western blot. Sirt1 activity can be determined by measuring deacetylation of a substrate, which can be detected using a fluorophore. […] Treatment with 0.5 mM leucine corresponds to a circulating level of the same molarity achieved by administering about 1,125 mg of dietary leucine to a human subject. Treatment with 0.25 mM leucine corresponds to a circulating level of the same molarity achieved by administering about 300 mg of dietary leucine to a human subject.

C2C12 myotubes [2] = assay: Fatty acid oxidation (O2 consumption response to palmitate injection) in C2C12 myotubes / muscle cells; assay type: cell-based; conditions: C2C12 myotubes; sildenafil 1 nM (change from baseline) or leucine 0.5 mM alone
Procedure: as §1, with “Fatty acid oxidation was measured as O2 consumption response to palmitate injection and is expressed as % change from pre-injection baseline. […] Data” for “Data”, “value. *p=0.013; **p=0.015.” for “value.*p<0.05.”

diet-induced obese mouse [3] = assay: Fasting blood glucose, insulin and HOMAIR in the diet-induced obese mouse; assay type: in vivo; conditions: 6 week treatment
Procedure: The interactive effects of icariin, a flavanol with specific PDE5 inhibitory properties, on glycemia and insulin sensitivity were assessed in the diet-induced obese mouse, which can be used as a murine model of type 2 diabetes. Male C57/BL6 mice were placed on standard low-fat chow (control; 10% energy from fat) or high fat (60% energy from fat, Research Diets # D12492, Research Diets, Inc, New Brunswick, N.J.) at six weeks of age to induce insulin resistance. […] The animals were then randomized to the following diets for an additional six weeks, with 10 animals per group: Low fat diet (LFD) control; High fat diet (HFD) control; HFD+leucine (24 g/kg diet, a two-fold increase over control levels)1 HFD+leucine (24 g/kg diet)+icariin (25 mg/kg diet). […] Mice were fasted overnight (˜16 hours) prior to measurement of fasting blood glucose, insulin and glucose tolerance. Glucose tolerance was determined following measurement of fasting glucose via intraperitoneal administration of glucose (1.2 g/kg body weight) followed by blood glucose measurement at 15, 30, 60, 90 and 120 minutes. Post-prandial glucose was measured within one hour of cessation of eating. Insulin tolerance was measured via an insulin tolerance test (ITT). Food was removed 4-6 hours prior to ITT, and baseline blood glucose measured. The mice were then injected intraperitoneally with insulin (1.2 U/kg body weight) and blood glucose was measured 15, 30, 60, 90 and 120 minutes following insulin injection. The homeostasis model assessment of insulin resistance (HOMAIR) was used as a screening index of changes in insulin sensitivity. HOMAIR is calculated via standard formula from fasting plasma insulin and glucose as follows: HOMAIR=[Insulin (uU/mL)×glucose (mM)]/22.5. The plasma glucose and insulin concentrations were measured using the Glucose Assay Kit from Biovision (Milpitas, Calif.) and the Insulin kit from Millipore (Billerica, Mass.), respectively. CRP levels in plasma were determined by ELISA (CRP: Life Diagnostics, West Chester, Pa.).

C2C12 myotubes [4] = assay: Glucose utilization (extracellular acidification response to glucose injection) in C2C12 myotubes / muscle cells; assay type: cell-based; conditions: C2C12 myotubes; leucine alone
Procedure: Glucose utilization was measured as extracellular acidification response to glucose injection. *p=0.04. […] Treatment with 0.5 mM leucine corresponds to a circulating level of the same molarity achieved by administering about 1,125 mg of dietary leucine to a human subject. Treatment with 0.25 mM leucine corresponds to a circulating level of the same molarity achieved by administering about 300 mg of dietary leucine to a human subject.

leucine was tested, and the “reduction in liver mass vs. untreated HFD mice” value (diet-induced obese mouse [1]) was ~10%, the “fatty acid oxidation, agent alone” value (3T3-L1 adipocytes) was 27% and the “fatty acid oxidation, agent alone” value (C2C12 myotubes [2]) was 73%. The “reduction in HOMAIR vs. untreated HFD mice” value (diet-induced obese mouse [3]) was ~30%, the “reduction in circulating insulin during fasting vs. untreated HFD mice” value (diet-induced obese mouse [3]) was ~25% and the “reduction in fasting glucose vs. untreated HFD mice” value (diet-induced obese mouse [3]) was ~20%. The “glucose utilization, agent alone” value (C2C12 myotubes [4]) was 9.3%.
